Patent publication US20070259875A1, “Triaryl substituted imidazole derivatives and taste-inhibiting uses thereof” (priority 2006, published 2007)

Experiments:
[1] = target: T1, human TRPM5 (Homo sapiens, UniProt Q9NZQ8); experiment: FLIPR membrane potential dye screening assay, ATP-stimulated, TRPM5-transfected HEK293 cells; assay type: cell-based; settings: maximum percent inhibition at concentrations between 10 μM and 100 μM; HEK293 cells with human TRPM5; 10 μM ATP; versus negative control wells
T1 construct: expressed in transfected cells
T1 sequence (Q9NZQ8 1-1165): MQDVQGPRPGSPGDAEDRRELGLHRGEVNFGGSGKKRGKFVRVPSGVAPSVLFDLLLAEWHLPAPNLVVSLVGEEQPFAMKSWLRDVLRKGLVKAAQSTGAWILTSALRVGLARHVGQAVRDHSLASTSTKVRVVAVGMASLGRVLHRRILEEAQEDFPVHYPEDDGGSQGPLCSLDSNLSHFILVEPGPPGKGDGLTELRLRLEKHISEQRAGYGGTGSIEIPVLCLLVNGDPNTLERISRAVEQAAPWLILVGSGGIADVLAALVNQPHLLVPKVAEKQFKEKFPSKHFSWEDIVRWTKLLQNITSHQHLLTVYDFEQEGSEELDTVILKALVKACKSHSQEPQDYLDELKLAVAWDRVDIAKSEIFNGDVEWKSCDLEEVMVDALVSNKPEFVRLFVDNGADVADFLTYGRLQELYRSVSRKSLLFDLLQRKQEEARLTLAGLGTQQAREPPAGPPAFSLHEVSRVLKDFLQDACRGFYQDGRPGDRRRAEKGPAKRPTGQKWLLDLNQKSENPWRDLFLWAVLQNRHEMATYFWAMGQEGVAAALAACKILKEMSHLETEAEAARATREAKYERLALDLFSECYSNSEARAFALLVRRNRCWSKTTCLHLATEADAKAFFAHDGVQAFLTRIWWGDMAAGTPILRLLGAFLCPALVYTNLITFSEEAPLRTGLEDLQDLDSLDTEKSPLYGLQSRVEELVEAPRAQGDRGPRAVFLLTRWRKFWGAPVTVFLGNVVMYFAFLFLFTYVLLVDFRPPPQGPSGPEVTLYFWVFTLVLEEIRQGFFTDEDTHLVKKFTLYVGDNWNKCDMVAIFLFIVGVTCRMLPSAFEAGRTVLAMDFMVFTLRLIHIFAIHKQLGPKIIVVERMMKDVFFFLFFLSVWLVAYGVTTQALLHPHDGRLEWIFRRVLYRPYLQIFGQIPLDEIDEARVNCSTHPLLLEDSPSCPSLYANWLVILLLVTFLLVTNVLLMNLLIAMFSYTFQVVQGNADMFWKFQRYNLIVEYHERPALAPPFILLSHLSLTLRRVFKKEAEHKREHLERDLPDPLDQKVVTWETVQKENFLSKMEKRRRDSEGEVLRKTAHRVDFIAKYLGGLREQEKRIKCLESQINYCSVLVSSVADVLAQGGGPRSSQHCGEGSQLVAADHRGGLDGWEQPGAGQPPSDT
Protocol: Modulation of the activity of human taste receptor proteins was measured in live cells on a fluorescent imaging plate reader (FLIPR). The basis of the assay (shown in FIG. 1) is the calcium-dependent activation of the ion channel which occurs via by activation of a G-protein coupled receptor (GPCR). GPCR activation by an appropriate agonist causes a transient increase in intercellular Ca^2+ ion concentration which in turn causes the ion channel to open, allowing an influx of Na^+ ions. This influx leads to a change in the membrane potential of the cell, which can be monitored as a change in the fluorescent signal from voltage-dependent (membrane potential) fluorescent dyes.
A schematic representation of the assay is shown in FIGS. 2(A) and 2(B), where traces of fluorescent response versus time are shown for cells transfected with a plasmid encoding human TRPM5 or cells containing sham plasmid controls.
For the screening assay, the human TRPM5 gene was cloned, HEK293 cells were transfected with a plasmid containing the gene, and a stable, high expression clone was chosen for the screen. Cells were grown in standard media at 37° C. The day before screening, the cells were removed from flasks and added to 384 well clear bottom plates (12K cells in 20 μL/well). On the assay day, 20 μL of membrane potential dye (Part No. R8123, Molecular Devices Corp.) was added to the cells and dye was allowed to be taken up, i.e., loaded, into the cells for 1 hr at 37° C. […] The assay was started by addition of 10 μL of solution from the compound plate into the cell plate. During this process, continuous fluorescent recordings were made simultaneously for all wells. After addition of the compound solution, the tips were automatically washed and 10 μL of a stimulation solution of 60 μM ATP (an agonist for an endogenous purinurgic GPCR), was added to all wells of the cell plate (to give a final concentration of 10 μM ATP). The height of the response was calculated and percent inhibition values, versus negative control wells, was calculated for the test samples.
(§1) Unless otherwise indicated, the data in Table 1 were determined using the assays described above, providing maximum percent inhibition data at concentrations between 10 μM and 100 μM.

[2] = tested on: GPCR-mediated calcium activation step; experiment: Calcium counterscreen (calcium sensitive dye, ATP stimulation, same cells); assay type: cell-based; settings: maximum percent inhibition at concentrations between 10 μM and 100 μM, Calcium3 dye
Protocol: Two counterscreen assays were run on separate cell plates utilizing the same cells as described above. In the calcium counterscreen, the cells were loaded with a calcium sensitive dye (Calcium3 Dye, Part no. 8090, Molecular Devices Corp.) and stimulated by ATP to check for compounds that block the GPCR-mediated calcium activation step. In the KCl counterscreen, cells were stimulated with 120 mM KCl (to give a final concentration of 20 mM KCl) instead of ATP to check for compounds that inhibit the membrane potential response by virtue of being non-specific ion channel blockers.
as §1

TRPM5 Activity (maximum percent inhibition) [1] [%] | melting point [°C] | Structure (SMILES) | Calcium Counterscreen (maximum percent inhibition) [2] [%]
79 | – | COC(=O)c1ccc(-c2nc(-c3ccccc3)c(-c3ccccc3)[nH]2)cc1 [Example 1, methyl4-(4,5-diphenyl-1H-imidazol-2-yl)benzoate] | 0
50 | 50 | OCc1ccc(-c2nc(-c3ccccc3)c(-c3ccccc3)[nH]2)cc1 [Example 2, [4-(4,5-diphenyl-1H-imidazol-2-yl)phenyl]methanol] | 0
42 | – | Nc1ccc(-c2nc(-c3ccccc3)c(-c3ccccc3)[nH]2)cc1 [Example 3, 4-(4,5-diphenyl-1H-imidazol-2-yl)aniline] | 0
51 | – | Oc1ccc(-c2nc(-c3ccccc3)c(-c3ccccc3)[nH]2)cc1 [Example 4, 4-(4,5-diphenyl-1H-imidazol-2-yl)phenol] | 0
19 | – | COC(=O)Nc1ccc(-c2nc(-c3ccccc3)c(-c3ccccc3)[nH]2)cc1 [Example 5, methyl4-(4,5-diphenyl-1H-imidazol-2-yl)phenylcarbamate] | 0
29 | – | CC(=O)Nc1ccc(-c2nc(-c3ccccc3)c(-c3ccccc3)[nH]2)cc1 [Example 6, N-[4-(4,5-diphenyl-1H-imidazol-2-yl)phenyl]acetamide] | 0
0 | – | N#Cc1ccc(-c2nc(-c3ccccc3)c(-c3ccccc3)[nH]2)cc1 [Example 7, 4-(4,5-diphenyl-1H-imidazol-2-yl)benzonitrile] | 0
90 | – | CS(=O)(=O)NCc1ccc(-c2nc(-c3ccccc3)c(-c3ccccc3)[nH]2)cc1 [Example 8, N-[4-(4,5-diphenyl-1H-imidazol-2-yl)benzyl]methanesulfonamide] | 0
60 | – | O=C(O)c1ccc(-c2nc(-c3ccccc3)c(-c3ccccc3)[nH]2)cc1 [Example 9, 4-(4,5-diphenyl-1H-imidazol-2-yl)benzoic acid] | 0
100 | – | O=[N+]([O-])c1ccc(-c2nc(-c3ccccc3)c(-c3ccccc3)[nH]2)cc1 [Example 10, 2-(4-nitro-phenyl)-4,5-diphenyl-1H-imidazole] | 0
